Experimental data taken from the CheMixHub viscosity set.

Test: xn = mol fraction of the nth substance listed

COC(=O)c1ccccc1 + CCCCCCCC
101 kPa
Settings | viscosity [mPa·s]
298.15 K, x2 = 0.0356 | 1.698
298.15 K, x2 = 0.0736 | 1.572
298.15 K, x2 = 0.1081 | 1.474
298.15 K, x2 = 0.1549 | 1.349
298.15 K, x2 = 0.1926 | 1.265
298.15 K, x2 = 0.2388 | 1.169
298.15 K, x2 = 0.3669 | 0.961
298.15 K, x2 = 0.4093 | 0.905
298.15 K, x2 = 0.4513 | 0.855
298.15 K, x2 = 0.5041 | 0.796
298.15 K, x2 = 0.55 | 0.754
298.15 K, x2 = 0.6034 | 0.707
298.15 K, x2 = 0.6567 | 0.669
298.15 K, x2 = 0.7105 | 0.634
298.15 K, x2 = 0.7575 | 0.606
298.15 K, x2 = 0.8645 | 0.558
298.15 K, x2 = 0.9387 | 0.533
308.15 K, x2 = 0.0548 | 1.358
308.15 K, x2 = 0.0935 | 1.263
308.15 K, x2 = 0.1329 | 1.177
308.15 K, x2 = 0.1743 | 1.099
308.15 K, x2 = 0.216 | 1.026
308.15 K, x2 = 0.2531 | 0.967
308.15 K, x2 = 0.2946 | 0.909
308.15 K, x2 = 0.341 | 0.852
308.15 K, x2 = 0.3823 | 0.806
308.15 K, x2 = 0.4247 | 0.763
308.15 K, x2 = 0.4738 | 0.719
308.15 K, x2 = 0.5182 | 0.685
308.15 K, x2 = 0.5728 | 0.645
308.15 K, x2 = 0.6245 | 0.612
308.15 K, x2 = 0.6742 | 0.583
308.15 K, x2 = 0.7274 | 0.558
308.15 K, x2 = 0.774 | 0.536
308.15 K, x2 = 0.8351 | 0.512
308.15 K, x2 = 0.9135 | 0.486
318.15 K, x2 = 0.0668 | 1.147
318.15 K, x2 = 0.0719 | 1.139
318.15 K, x2 = 0.112 | 1.068
318.15 K, x2 = 0.1404 | 1.022
318.15 K, x2 = 0.1952 | 0.94
318.15 K, x2 = 0.2418 | 0.876
318.15 K, x2 = 0.2828 | 0.823
318.15 K, x2 = 0.3337 | 0.764
318.15 K, x2 = 0.3678 | 0.729
318.15 K, x2 = 0.4175 | 0.682
318.15 K, x2 = 0.463 | 0.644
318.15 K, x2 = 0.5158 | 0.605
318.15 K, x2 = 0.5624 | 0.576
318.15 K, x2 = 0.6149 | 0.548
318.15 K, x2 = 0.6664 | 0.525
318.15 K, x2 = 0.7241 | 0.502
318.15 K, x2 = 0.7767 | 0.485
318.15 K, x2 = 0.8373 | 0.468
318.15 K, x2 = 0.8921 | 0.453

c1ccc2c(c1)CCCC2 + CCCCCCCC
viscosity [mPa·s], 101 kPa
Settings | x2 = 0.0997 | x2 = 0.2011 | x2 = 0.3013 | x2 = 0.3997 | x2 = 0.5003 | x2 = 0.5995 | x2 = 0.7001 | x2 = 0.8014 | x2 = 0.8955
293.15 K | 1.831 | 1.527 | 1.303 | 1.143 | 0.976 | 0.85 | 0.747 | 0.673 | 0.612
298.15 K | 1.675 | 1.405 | 1.207 | 1.063 | 0.918 | 0.811 | 0.702 | 0.635 | 0.58
303.15 K | 1.533 | 1.294 | 1.118 | 0.989 | 0.857 | 0.762 | 0.662 | 0.599 | 0.55
313.15 K | 1.308 | 1.117 | 0.971 | 0.866 | 0.757 | 0.675 | 0.592 | 0.539 | 0.496

CCOC(=O)CCl + CCCCCCCCC
viscosity [mPa·s], 101.33 kPa
Settings | x1 = 0.1004 | x1 = 0.2033 | x1 = 0.3013 | x1 = 0.4018 | x1 = 0.5019 | x1 = 0.6012 | x1 = 0.7037 | x1 = 0.8037 | x1 = 0.9012
298.15 K | 0.66 | 0.665 | 0.686 | 0.716 | 0.755 | 0.799 | 0.849 | 0.907 | 0.982
303.15 K | 0.62 | 0.623 | 0.644 | 0.67 | 0.705 | 0.743 | 0.792 | 0.842 | 0.912
308.15 K | 0.58 | 0.583 | 0.602 | 0.624 | 0.654 | 0.688 | 0.735 | 0.778 | 0.843

c1ccc2c(c1)CCCC2 + CCCCCCCCC
viscosity [mPa·s], 101 kPa
Settings | x2 = 0.1063 | x2 = 0.2018 | x2 = 0.3066 | x2 = 0.4057 | x2 = 0.5014 | x2 = 0.6005 | x2 = 0.704 | x2 = 0.7942 | x2 = 0.8898
293.15 K | 1.814 | 1.585 | 1.352 | 1.198 | 1.082 | 0.976 | 0.89 | 0.826 | 0.784
298.15 K | 1.653 | 1.45 | 1.254 | 1.111 | 1.006 | 0.908 | 0.833 | 0.775 | 0.735
303.15 K | 1.518 | 1.334 | 1.151 | 1.034 | 0.937 | 0.848 | 0.777 | 0.728 | 0.69
313.15 K | 1.308 | 1.148 | 0.997 | 0.905 | 0.821 | 0.749 | 0.69 | 0.649 | 0.615

CCOC(=O)CCl + CCCCCCCCCC
viscosity [mPa·s], 101.33 kPa
Settings | x1 = 0.0992 | x1 = 0.2037 | x1 = 0.3031 | x1 = 0.4005 | x1 = 0.5016 | x1 = 0.6027 | x1 = 0.7039 | x1 = 0.8019 | x1 = 0.9008
298.15 K | 0.821 | 0.825 | 0.828 | 0.843 | 0.869 | 0.897 | 0.93 | 0.969 | 1.024
303.15 K | 0.761 | 0.766 | 0.767 | 0.78 | 0.801 | 0.827 | 0.854 | 0.885 | 0.946
308.15 K | 0.707 | 0.713 | 0.719 | 0.725 | 0.742 | 0.765 | 0.791 | 0.829 | 0.872

COC(=O)c1ccccc1 + CCCCCCCCCC
101 kPa
Settings | viscosity [mPa·s]
298.15 K, x2 = 0.0262 | 1.743
298.15 K, x2 = 0.0672 | 1.629
298.15 K, x2 = 0.1282 | 1.488
298.15 K, x2 = 0.172 | 1.406
298.15 K, x2 = 0.2455 | 1.29
298.15 K, x2 = 0.2831 | 1.234
298.15 K, x2 = 0.3238 | 1.184
298.15 K, x2 = 0.3645 | 1.141
298.15 K, x2 = 0.4095 | 1.095
298.15 K, x2 = 0.458 | 1.05
298.15 K, x2 = 0.5093 | 1.012
298.15 K, x2 = 0.563 | 0.972
298.15 K, x2 = 0.6077 | 0.946
298.15 K, x2 = 0.6694 | 0.915
298.15 K, x2 = 0.7276 | 0.891
298.15 K, x2 = 0.8044 | 0.868
298.15 K, x2 = 0.8571 | 0.855
298.15 K, x2 = 0.9293 | 0.845
308.15 K, x2 = 0.0467 | 1.4
308.15 K, x2 = 0.0764 | 1.34
308.15 K, x2 = 0.1148 | 1.271
308.15 K, x2 = 0.1464 | 1.219
308.15 K, x2 = 0.1853 | 1.163
308.15 K, x2 = 0.2147 | 1.12
308.15 K, x2 = 0.2537 | 1.076
308.15 K, x2 = 0.2939 | 1.031
308.15 K, x2 = 0.3391 | 0.988
308.15 K, x2 = 0.3803 | 0.956
308.15 K, x2 = 0.429 | 0.922
308.15 K, x2 = 0.4756 | 0.894
308.15 K, x2 = 0.5274 | 0.866
308.15 K, x2 = 0.575 | 0.841
308.15 K, x2 = 0.6318 | 0.816
308.15 K, x2 = 0.6926 | 0.79
308.15 K, x2 = 0.7434 | 0.775
308.15 K, x2 = 0.8116 | 0.759
308.15 K, x2 = 0.887 | 0.747
318.15 K, x2 = 0.0153 | 1.249
318.15 K, x2 = 0.0485 | 1.196
318.15 K, x2 = 0.0774 | 1.151
318.15 K, x2 = 0.113 | 1.101
318.15 K, x2 = 0.1467 | 1.058
318.15 K, x2 = 0.1837 | 1.015
318.15 K, x2 = 0.2171 | 0.977
318.15 K, x2 = 0.2582 | 0.936
318.15 K, x2 = 0.2931 | 0.903
318.15 K, x2 = 0.3395 | 0.863
318.15 K, x2 = 0.3892 | 0.826
318.15 K, x2 = 0.4363 | 0.795
318.15 K, x2 = 0.4972 | 0.76
318.15 K, x2 = 0.5486 | 0.734
318.15 K, x2 = 0.6025 | 0.713
318.15 K, x2 = 0.6669 | 0.692
318.15 K, x2 = 0.7208 | 0.678
318.15 K, x2 = 0.7971 | 0.663
318.15 K, x2 = 0.8627 | 0.655
